Measured values taken from PMC6747015, “Structure–function study of a novel inhibitor of the casein kinase 1 family in Arabidopsis thaliana” (Plant Direct, 2019).

Assays:
CKL8 (AT5G43320) = biological target: T1, CKL8 (AT5G43320) (Arabidopsis thaliana, UniProt Q9LSX4); assay: AMI‐329 bead binding with AMI‐331 competitor, CKL8
T1 construct: from tissue; host or cells: Arabidopsis seedlings, two weeks old
Protocol: (§1) Screening for proteins bound to AMI‐329 beads was done by a method similar to what has previously been described (Uehara et al., 2019). Briefly, two‐week‐old seedlings grown under LD conditions were harvested at time points ZT2, ZT6, ZT9, and ZT17, and stored at −80°C. Proteins from the frozen plant samples were incubated with 0, 5, or 50 µM of AMI‐331 at 4°C for 30 min with rotary mixing. Two technical replicates were used for each experiment. PBS‐washed AMI‐329 beads were added to the protein samples and gently rotated at 4°C for 1 hr. AMI‐329 bead resins were washed with bead buffer (Uehara et al., 2019) six times. The washed resins were suspended in SDS sample buffer and boiled for 8 min. Protein samples were in‐gel‐digested as previously described (Uehara et al., 2019). Peptides were analyzed with a Q Exactive hybrid quadrupole‐orbitrap mass spectrometer (Thermo Fisher Scientific), as described previously (Uehara et al., 2019). […]
(§2) However, another possible mechanism for the strong AMI‐331 biological activity in vivo is that it targets proteins other than the CK1 family for period lengthening. […] It is noteworthy that kinase AT4G08800 is very similar to the CKL family, but the ATP‐binding pocket of mammalian CK1 as determined by its crystal structure (Shinohara et al., 2017) was absent from AT4G08800, as shown in an Araport 11 model (https://www.araport.org). […]

CKL5 (AT2G19470) = biological target: T2, CKL5 (AT2G19470) (Arabidopsis thaliana, UniProt Q9ZUP4); assay: AMI‐329 bead binding with AMI‐331 competitor, CKL5
T2 construct: from tissue; host or cells: Arabidopsis seedlings, two weeks old
Protocol: as §1, §2

MPK family = assay: AMI‐329 bead binding with AMI‐331 competitor, MPK family; design: species or system Arabidopsis thaliana
Protocol: Screening for proteins bound to AMI‐329 beads was done by a method similar to what has previously been described (Uehara et al., 2019). Briefly, two‐week‐old seedlings grown under LD conditions were harvested at time points ZT2, ZT6, ZT9, and ZT17, and stored at −80°C. Proteins from the frozen plant samples were incubated with 0, 5, or 50 µM of AMI‐331 at 4°C for 30 min with rotary mixing. Two technical replicates were used for each experiment. PBS‐washed AMI‐329 beads were added to the protein samples and gently rotated at 4°C for 1 hr. AMI‐329 bead resins were washed with bead buffer (Uehara et al., 2019) six times. The washed resins were suspended in SDS sample buffer and boiled for 8 min. Protein samples were in‐gel‐digested as previously described (Uehara et al., 2019). Peptides were analyzed with a Q Exactive hybrid quadrupole‐orbitrap mass spectrometer (Thermo Fisher Scientific), as described previously (Uehara et al., 2019). MS/MS spectra were interpreted, and peak lists were generated using Proteome Discoverer 2.0.0.802 (Thermo Fisher Scientific). Searches were performed using SEQUEST (Thermo Fisher Scientific) against the Arabidopsis thaliana (TAIR TaxID = 3,702) peptide sequence database. […]
To examine other potential targets of AMI‐331, we analyzed the spectra for PHA767491 target proteins (Uehara et al., 2019). […]

Unknown AT5G42765 = assay: AMI‐329 bead binding with AMI‐331 competitor, unknown protein AT5G42765; design: species or system Arabidopsis thaliana
Protocol: as §1, §2

CKL1 = CKL1 (Arabidopsis thaliana, UniProt P42158); assay: In vitro CKL1 kinase activity; format: biochemical
Excerpt: Supplemental Figure3.InvitroCKL1 kinaseactivitywithAMI-331.

CKL9 (AT1G03930) = biological target: T3, CKL9 (AT1G03930) (Arabidopsis thaliana, UniProt Q9ZWB3); assay: AMI‐329 bead binding with AMI‐331 competitor, CKL9
T3 construct: from tissue; host or cells: Arabidopsis seedlings, two weeks old
Protocol: as §1, §2

CKL1 (AT4G26100) = biological target: T4, CKL1 (AT4G26100) (Arabidopsis thaliana, UniProt P42158); assay: AMI‐329 bead binding with AMI‐331 competitor, CKL1
T4 construct: from tissue; host or cells: Arabidopsis seedlings, two weeks old
Protocol: as §1, §2

CKL7 (AT5G44100) = biological target: T5, CKL7 (AT5G44100) (Arabidopsis thaliana, UniProt Q9FFH8); assay: AMI‐329 bead binding with AMI‐331 competitor, CKL7
T5 construct: from tissue; host or cells: Arabidopsis seedlings, two weeks old
Protocol: as §1, §2

Kinase AT4G34500 = biological target: T6, Kinase AT4G34500 (Arabidopsis thaliana, UniProt Q6NKZ9); assay: AMI‐329 bead binding with AMI‐331 competitor, kinase AT4G34500
T6 construct: from tissue; host or cells: Arabidopsis seedlings, two weeks old
Protocol: as §1, §2

LUP1 (AT1G78970) = biological target: T7, LUP1 (AT1G78970) (Arabidopsis thaliana, UniProt Q9C5M3); assay: AMI‐329 bead binding with AMI‐331 competitor, LUP1
T7 construct: from tissue; host or cells: Arabidopsis seedlings, two weeks old
Protocol: as §1, §2

CKL6 (AT4G28540) = biological target: T8, CKL6 (AT4G28540) (Arabidopsis thaliana, UniProt Q8LPJ1); assay: AMI‐329 bead binding with AMI‐331 competitor, CKL6
T8 construct: from tissue; host or cells: Arabidopsis seedlings, two weeks old
Protocol: as §1, §2

T4 sequence (P42158 whole entry): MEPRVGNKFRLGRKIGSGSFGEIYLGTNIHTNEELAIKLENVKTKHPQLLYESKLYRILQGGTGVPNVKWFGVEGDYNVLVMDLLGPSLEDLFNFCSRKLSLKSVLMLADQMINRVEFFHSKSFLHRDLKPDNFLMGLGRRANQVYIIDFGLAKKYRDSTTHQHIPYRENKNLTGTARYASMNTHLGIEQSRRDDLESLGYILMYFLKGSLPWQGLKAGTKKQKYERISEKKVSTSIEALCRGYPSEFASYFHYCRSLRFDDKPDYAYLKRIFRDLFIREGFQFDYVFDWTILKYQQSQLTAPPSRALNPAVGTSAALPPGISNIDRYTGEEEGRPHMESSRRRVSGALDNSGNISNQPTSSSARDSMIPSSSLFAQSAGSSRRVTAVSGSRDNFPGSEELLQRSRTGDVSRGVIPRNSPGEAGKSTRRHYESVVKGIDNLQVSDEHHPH
T5 sequence (Q9FFH8 whole entry): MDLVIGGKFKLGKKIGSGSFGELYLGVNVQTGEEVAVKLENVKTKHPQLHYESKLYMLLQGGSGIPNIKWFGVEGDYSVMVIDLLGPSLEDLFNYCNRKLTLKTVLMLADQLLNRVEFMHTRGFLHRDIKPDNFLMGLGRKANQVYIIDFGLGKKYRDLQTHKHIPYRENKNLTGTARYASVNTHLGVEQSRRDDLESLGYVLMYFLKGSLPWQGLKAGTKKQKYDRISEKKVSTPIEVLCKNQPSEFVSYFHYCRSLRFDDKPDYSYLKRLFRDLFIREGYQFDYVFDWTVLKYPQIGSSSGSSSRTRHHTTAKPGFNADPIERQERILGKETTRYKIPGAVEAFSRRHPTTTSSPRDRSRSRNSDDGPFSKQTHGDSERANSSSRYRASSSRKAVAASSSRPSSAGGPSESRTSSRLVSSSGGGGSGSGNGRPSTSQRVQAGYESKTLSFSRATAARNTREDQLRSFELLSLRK
T8 sequence (Q8LPJ1 whole entry): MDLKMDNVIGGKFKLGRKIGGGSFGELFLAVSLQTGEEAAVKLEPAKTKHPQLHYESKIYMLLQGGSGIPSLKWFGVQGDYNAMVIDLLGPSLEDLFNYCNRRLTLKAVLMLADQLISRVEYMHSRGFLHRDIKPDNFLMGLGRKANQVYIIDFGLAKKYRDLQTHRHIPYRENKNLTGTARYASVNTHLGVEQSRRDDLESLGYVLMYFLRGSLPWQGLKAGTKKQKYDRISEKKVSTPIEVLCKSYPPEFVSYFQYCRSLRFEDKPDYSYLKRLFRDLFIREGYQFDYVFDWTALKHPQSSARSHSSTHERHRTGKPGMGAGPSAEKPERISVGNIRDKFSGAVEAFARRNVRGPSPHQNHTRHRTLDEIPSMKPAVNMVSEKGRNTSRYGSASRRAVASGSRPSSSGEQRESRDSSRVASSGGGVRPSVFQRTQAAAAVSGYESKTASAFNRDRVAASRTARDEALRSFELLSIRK
T2 sequence (Q9ZUP4 whole entry): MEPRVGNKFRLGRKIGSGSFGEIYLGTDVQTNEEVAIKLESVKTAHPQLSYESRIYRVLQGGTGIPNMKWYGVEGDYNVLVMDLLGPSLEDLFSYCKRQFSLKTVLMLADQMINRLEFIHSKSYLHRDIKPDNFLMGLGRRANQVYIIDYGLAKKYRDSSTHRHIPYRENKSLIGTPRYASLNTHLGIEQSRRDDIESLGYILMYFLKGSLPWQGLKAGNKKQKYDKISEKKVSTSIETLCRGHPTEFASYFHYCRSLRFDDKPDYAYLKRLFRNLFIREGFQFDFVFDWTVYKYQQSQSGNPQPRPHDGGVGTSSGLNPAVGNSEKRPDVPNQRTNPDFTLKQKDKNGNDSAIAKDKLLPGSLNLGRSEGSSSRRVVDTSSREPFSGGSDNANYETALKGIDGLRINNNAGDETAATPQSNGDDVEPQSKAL
T1 sequence (Q9LSX4 whole entry): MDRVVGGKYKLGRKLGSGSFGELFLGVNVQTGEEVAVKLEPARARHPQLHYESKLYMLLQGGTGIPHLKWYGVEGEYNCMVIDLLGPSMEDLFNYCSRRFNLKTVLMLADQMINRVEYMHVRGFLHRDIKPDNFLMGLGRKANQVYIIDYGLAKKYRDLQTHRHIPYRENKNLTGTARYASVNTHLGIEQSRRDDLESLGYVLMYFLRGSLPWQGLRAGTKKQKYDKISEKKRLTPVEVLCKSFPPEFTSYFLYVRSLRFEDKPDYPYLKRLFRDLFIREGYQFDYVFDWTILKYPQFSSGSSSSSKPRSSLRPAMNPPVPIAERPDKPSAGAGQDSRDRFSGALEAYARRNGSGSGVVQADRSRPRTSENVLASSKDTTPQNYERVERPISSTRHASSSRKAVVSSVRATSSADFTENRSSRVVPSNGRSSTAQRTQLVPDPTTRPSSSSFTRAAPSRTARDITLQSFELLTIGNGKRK
T3 sequence (Q9ZWB3 whole entry): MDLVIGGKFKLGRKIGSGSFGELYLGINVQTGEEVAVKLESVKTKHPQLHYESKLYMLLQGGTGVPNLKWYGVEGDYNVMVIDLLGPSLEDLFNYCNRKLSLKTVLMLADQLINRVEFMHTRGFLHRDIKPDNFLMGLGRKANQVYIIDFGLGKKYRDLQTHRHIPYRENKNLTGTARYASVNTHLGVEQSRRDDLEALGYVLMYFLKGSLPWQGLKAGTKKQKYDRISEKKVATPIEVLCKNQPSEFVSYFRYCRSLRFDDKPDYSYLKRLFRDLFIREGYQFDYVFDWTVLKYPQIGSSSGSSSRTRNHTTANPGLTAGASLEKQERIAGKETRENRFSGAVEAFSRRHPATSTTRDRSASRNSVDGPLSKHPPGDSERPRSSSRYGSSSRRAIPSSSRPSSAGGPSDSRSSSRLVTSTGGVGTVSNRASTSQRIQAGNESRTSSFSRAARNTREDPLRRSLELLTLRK
T7 sequence (Q9C5M3 whole entry): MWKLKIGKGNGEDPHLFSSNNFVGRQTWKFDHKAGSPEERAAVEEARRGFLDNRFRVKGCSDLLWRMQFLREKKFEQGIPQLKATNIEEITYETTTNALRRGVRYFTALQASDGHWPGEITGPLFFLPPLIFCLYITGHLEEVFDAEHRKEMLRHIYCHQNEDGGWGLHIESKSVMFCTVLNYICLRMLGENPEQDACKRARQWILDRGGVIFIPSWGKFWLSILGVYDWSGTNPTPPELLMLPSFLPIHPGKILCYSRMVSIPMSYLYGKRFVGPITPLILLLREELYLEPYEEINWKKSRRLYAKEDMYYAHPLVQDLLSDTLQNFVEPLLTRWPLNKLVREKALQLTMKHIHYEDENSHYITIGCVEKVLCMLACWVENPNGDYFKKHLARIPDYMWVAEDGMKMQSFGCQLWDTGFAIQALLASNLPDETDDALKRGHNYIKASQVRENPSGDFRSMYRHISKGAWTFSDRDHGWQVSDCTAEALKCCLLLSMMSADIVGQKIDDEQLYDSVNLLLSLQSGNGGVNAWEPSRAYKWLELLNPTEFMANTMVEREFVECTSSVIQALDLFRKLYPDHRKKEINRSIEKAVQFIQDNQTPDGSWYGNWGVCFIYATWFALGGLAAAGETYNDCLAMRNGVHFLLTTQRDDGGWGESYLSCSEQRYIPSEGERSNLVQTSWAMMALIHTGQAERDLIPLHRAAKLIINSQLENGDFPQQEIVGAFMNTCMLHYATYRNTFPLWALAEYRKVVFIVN
T6 sequence (Q6NKZ9 whole entry): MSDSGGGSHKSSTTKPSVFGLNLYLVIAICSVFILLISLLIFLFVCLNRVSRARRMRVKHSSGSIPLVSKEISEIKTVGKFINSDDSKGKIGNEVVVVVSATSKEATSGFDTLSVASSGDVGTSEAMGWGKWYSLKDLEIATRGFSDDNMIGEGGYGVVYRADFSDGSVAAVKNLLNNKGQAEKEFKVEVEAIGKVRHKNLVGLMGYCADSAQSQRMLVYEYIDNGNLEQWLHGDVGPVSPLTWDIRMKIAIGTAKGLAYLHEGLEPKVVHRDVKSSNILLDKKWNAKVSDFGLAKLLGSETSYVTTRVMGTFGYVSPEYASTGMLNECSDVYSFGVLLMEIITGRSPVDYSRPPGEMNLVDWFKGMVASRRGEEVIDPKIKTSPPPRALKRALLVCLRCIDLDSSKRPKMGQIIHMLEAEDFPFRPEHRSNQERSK
Sequence of CKL1 (P42158 whole entry): as the sequence (P42158 whole entry) above

C#CCn1c2c(c(Br)c1-c1ccncc1)C(=O)NCC2.Cl [AMI‐331]
Spectra (PSMs) AMI‐329 beads bound (CKL8 (AT5G43320); competitor AMI‐331 5 µM): 0 PSMs
Spectra (PSMs) AMI‐329 beads bound (CKL8 (AT5G43320); competitor AMI‐331 50 µM): 0 PSMs
Spectra (PSMs) AMI‐329 beads bound (CKL5 (AT2G19470); competitor AMI‐331 5 µM): 1 PSMs
Spectra (PSMs) AMI‐329 beads bound (CKL5 (AT2G19470); competitor AMI‐331 50 µM): 0 PSMs
Spectra on AMI‐329 beads relative to 0 µM sample (MPK family; 5 µM AMI‐331 as competitor): 13%–85%
Spectra on AMI‐329 beads relative to 0 µM sample (MPK family; 50 µM AMI‐331 as competitor): 0%–31%
Spectra (PSMs) AMI‐329 beads bound (Unknown AT5G42765; competitor AMI‐331 5 µM): 0 PSMs
Spectra (PSMs) AMI‐329 beads bound (Unknown AT5G42765; competitor AMI‐331 50 µM): 0 PSMs
IC50 (CKL1): 1.4 µM
Spectra (PSMs) AMI‐329 beads bound (CKL9 (AT1G03930); competitor AMI‐331 5 µM): 1 PSMs
Spectra (PSMs) AMI‐329 beads bound (CKL9 (AT1G03930); competitor AMI‐331 50 µM): 0 PSMs
Spectra (PSMs) AMI‐329 beads bound (CKL1 (AT4G26100); competitor AMI‐331 5 µM): 2 PSMs
Spectra (PSMs) AMI‐329 beads bound (CKL1 (AT4G26100); competitor AMI‐331 50 µM): 0 PSMs
Spectra (PSMs) AMI‐329 beads bound (CKL7 (AT5G44100); competitor AMI‐331 5 µM): 1 PSMs
Spectra (PSMs) AMI‐329 beads bound (CKL7 (AT5G44100); competitor AMI‐331 50 µM): 0 PSMs
Spectra (PSMs) AMI‐329 beads bound (Kinase AT4G34500; competitor AMI‐331 5 µM): 0 PSMs
Spectra (PSMs) AMI‐329 beads bound (Kinase AT4G34500; competitor AMI‐331 50 µM): 0 PSMs
Spectra (PSMs) AMI‐329 beads bound (LUP1 (AT1G78970); competitor AMI‐331 5 µM): 0 PSMs
Spectra (PSMs) AMI‐329 beads bound (LUP1 (AT1G78970); competitor AMI‐331 50 µM): 0 PSMs
Spectra (PSMs) AMI‐329 beads bound (CKL6 (AT4G28540); competitor AMI‐331 5 µM): 1 PSMs
Spectra (PSMs) AMI‐329 beads bound (CKL6 (AT4G28540); competitor AMI‐331 50 µM): 0 PSMs
